Test results reported in patent US20250262167A1, “COMPOUNDS, TARGETS AND PATHWAYS FOR MACROPHAGE MODULATION” (Massachusetts Institute of Technology, priority 2020, published 2025).

Legend:
[1] = system: ImKCs; conditions: dose- and time-dependent
Experimental: Total protein lysates were isolated from either mouse ImKCs with or without DPI treatment for 6 and 12 hrs or human primary macrophages with or without DPI treatment for 12 hrs at the indicated concentrations. Equal amounts of total proteins from whole-cell lysates were subjected to Western blotting analysis. β-actin was used as a loading control. Shown are representative data of two independent experiments. […] P values were calculated by student t-test. * P<0.05, ** P<0.01. n.s. not significant.
Proteins were extracted from cells with RIPA buffer. Protein concentration was quantified by BCA Protein Assay Kit (Pierce Biotechnology). Samples containing 20 μg total protein were resolved on a 10% SDS-PAGE gel and electro-transferred onto a PVDF membrane (Millipore Corporation). The membrane was blocked in 5% (w/v) fat-free milk in PBST (PBS containing 0.1% Tween-20). […] The blot was washed twice in PBST and then incubated with anti-Rabbit HRP-conjugated secondary antibody (Cell Signaling Technology, 1:2000) in 5% fat-free milk. The membrane was washed twice in PBST and subjected to protein detection by ECL Plus Western Blotting Detection System (GE Healthcare) before being exposed to a Kodak BioMax XAR film.

[2] = system: β-arrestin2; test: β-arrestin2 translocation assay (TIRF microscope); type: cell-based, mouse; conditions: 10 min, ImKCs and BMDMs; DPI 50 nM, S1P 3 mM
Experimental: FIGS. 21A-21I show DPI stimulates glycolysis through GPR3 and β-arrestin2. FIGS. 21A-21B show DPI-stimulated glycolysis is independent of the NOX activity. […] The mean fluorescence intensity (MFI) of 2-NBDG in cells was measured by flow cytometry and normalized to DMSO controls of wildtype BMDMs. Data are presented as the mean±sd (n=3). […] ImKCs were transfected with siRNA specific for Gpr3 or a scramble siRNA as control. […] Data are presented as the mean±sd (n=4). […] Data are presented as the mean±sd (n=12). […] Abbr2^−/− ImKC were constructed by CRISPR-Cas9-mediated gene editing. […] Data are presented as the mean±sd (n=4). […] ImKCs were transfected with Abbr2-GFP fusion gene and stimulated with DMSO, DPI (50 nM), or S1P (3 mM). The GFP signal was captured with a TIRF microscope at indicated time points. Shown are representative data of GFP signal at 0 min and 10 min, and merged signal from three independent experiments.
Specific parameters for glycolytic capacity and glycolytic reserve were calculated and summarized based on two independent experiments. […] The GFP signal was captured with a TIRF microscope at indicated time points. […]
BMDMs or ImKCs were cotransfected with plasmids encoding FLAG-GPR3-GFP or β-arrestin2-RFP. […] The fluorescent signals of membrane-bound receptor or β-arrestin2 were collected as live images using a total internal reflection fluorescence (TIRF) microscope (Olympus). […]

[3] = system: B16F10 melanoma cells; test: Tumor growth inhibition by treated macrophages or their conditioned medium; type: cell-based, mouse
Experimental: DEGs were identified by edgeR at P<0.05 with at least 2 fold-change. Data for genes that were not classified as differentially expressed are plotted in black. […] Mouse BMMs were cultured in normal medium with or without 2.5 μM thiostrepton for 24 hrs (group 1), or cultured in B16F10 tumor cell conditioned medium (CM) with or without 2.5 μM thiostrepton for 24 hrs (group 2), or cultured with B16F10 tumor cell CM for 24 hrs first and then treated with 2.5 μM thiostrepton for another 24 hrs (group 3). The transcript levels of the indicated genes were quantified by qPCR. Data were summarized from two independent experiments. […] Mouse BMMs were treated with thiostrepton for 24 hrs. […] The number of tumor cells were quantified by flow cytometry after subtracting macrophages from total number of cells. […]
Conditioned medium (CM) was collected and filtered. […] The number of tumor cells were quantified by flow cytometry. […] Mouse BMMs (FIG. 14B) or hMDM (FIG. 14C) were treated with […] thiostrepton for 24 hrs, then co-cultured with equal number of eFluro670 and anti-CD20 labelled human B-cell lymphoma cells for 2 hrs, and analyzed by flow cytometry. […]
Mouse bone marrow-derived macrophages (mBMM) were prepared as described previously^54. […] Expression of Arg, Fizz1 and Vegfa were quantified by qPCR to assess the development of TAMs. […]

[4] = system: mouse BMMs with anti-CD20 labelled human B lymphoma cells (GMB); test: ADCP of mouse macrophages; type: cell-based; design: dose or concentration left out as unconfirmed; conditions: co-culture 2 hrs
Experimental: Conditioned medium (CM) was collected and filtered. B16F10 melanoma cells were cultured for 12 hrs with CM or CM heat-inactivated at 95° C. for 5 min. The number of tumor cells were quantified by flow cytometry. Data were summarized from two independent experiments. * P<0.05 by T-test. P values are shown based on t-test. […] Mouse BMMs (FIG. 14B) or hMDM (FIG. 14C) were treated with […] thiostrepton for 24 hrs, then co-cultured with equal number of eFluro670 and anti-CD20 labelled human B-cell lymphoma cells for 2 hrs, and analyzed by flow cytometry. Macrophages that have phagocytosed tumor cells are identified as efluro670+ and CD14+. Shown are representative eFluro670 histograms gating on CD14+ macrophages from three different experiments.
To examine whether thiostrepton-activating macrophages or conditioned medium have effects on tumor cell growth, BMMs were treated with thiostrepton for 24 hrs. Equal numbers of primed BMMs and melanoma cells (B16F10) were co-cultured for 12 hrs. […] Thiostrepton elevated ADCP of both human and mouse macrophages (FIGS. 14B-14C).

[5] = Macrophage numbers and gut bacterial counts in non-tumor bearing mice; type: in vivo, mouse
Experimental: (n=3). Shown are representative F4/80 versus CD11b staining profiles gating on CD45+ cells. I.P.: intraperitoneal injection; S.C.: paratumor subcutaneous injection. […] Data shown are mean±s.d. n.s., not significant by T-test.
Next, we examined whether thiostrepon has anti-tumor effect in vivo through activating macrophages. B16F10 melanoma cells were injected subcutaneously into syngeneic C57BL/6 mice. 6 and 12 days later, tumor-bearing mice were treated with either vehicle (DMSO), melanoma specific antibody TA99, thiostrepton, or combination of TA99 and thiostrepton by intraperitoneal injection (I.P.). […] Since thiostrepton inhibits cell proliferation and is an antibiotic, to exclude its systematic effects on immune cells and on gut microbiome, tumor-bearing mice were treated by para-tumor subcutaneous injection (S.C.) with a lower dose of thiostrepton (20 mg/kg). […] Consistently, more abundant macrophages were stained positive for F4/80 by immunochemistry in tumor sections from mice treated with thiostrepton or thiostrepton plus TA99 than mice treated with vehicle or T99 (FIG. 6E).

Row | SMILES | HK, GAPDH, LDHA and enolase at the protein level [1] | translocation of β-arrestin2 from cytosol to the plasma membrane [2] | melanoma cells in conditioned medium from treated macrophages ([3]; 12 hrs, vs untreated or heat-inactivated conditioned medium) | melanoma cells after co-culture with treated macrophages ([3]; BMMs treated 24 hrs, co-culture 12 hrs, vs untreated macrophages, dose-dependent) | ADCP [4] | total bacterial counts in the gut ([5]; both dosing strategies) | macrophages in the spleen and bone marrow ([5]; intraperitoneal administration) | macrophage numbers ([5]; subcutaneous administration)
1 | c1ccc2c(c1)[I+]c1ccccc1-2 [Diphenyleneiodonium chloride] | upregulation | stimulated translocation |  |  |  |  |  | 
2 | C=C(NC(=O)C(=C)NC(=O)c1csc(C2=N[C@@H]3c4csc(n4)[C@H]4NC(=O)c5csc(n5)[C@H]([C@](C)(O)[C@@H](C)O)NC(=O)[C@H]5CSC(=N5)/C(=C/C)NC(=O)[C@H]([C@@H](C)O)NC(=O)c5csc(n5)[C@]3(CC2)NC(=O)[C@H](C)NC(=O)C(=C)NC(=O)[C@H](C)NC(=O)[C@H]([C@@H](C)CC)N[C@@H]2C=Cc3c([C@H](C)O)cc(nc3[C@H]2O)C(=O)O[C@@H]4C)n1)C(N)=O [Thiostrepton] |  |  | more melanoma cells were lost | Significantly more melanoma cells were lost | elevated | did not change | increased numbers | did not have significant effects
